Data from US8415336B2, “Cyclic (aza)indolizinecarboxamides, their preparation and their use as pharmaceuticals” (Sanofi, priority 2009, dated 2013).
pIC50: −log10 of the molar value. Counter-ions that a name gives are not always drawn.

Target: T1, Recombinant human renin (Homo sapiens, UniProt P00797)
T1 construct: purchased Cayman 10006217
T1 sequence (P00797 67-406): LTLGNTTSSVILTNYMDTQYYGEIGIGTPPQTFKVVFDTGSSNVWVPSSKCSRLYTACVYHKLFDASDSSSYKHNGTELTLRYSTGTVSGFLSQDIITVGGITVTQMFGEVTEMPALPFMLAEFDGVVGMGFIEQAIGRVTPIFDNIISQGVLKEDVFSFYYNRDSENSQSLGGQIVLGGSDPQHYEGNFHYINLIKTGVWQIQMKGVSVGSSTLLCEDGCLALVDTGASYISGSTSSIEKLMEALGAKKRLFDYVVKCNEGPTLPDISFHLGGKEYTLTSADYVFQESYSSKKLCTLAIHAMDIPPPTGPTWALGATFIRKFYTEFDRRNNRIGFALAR
Test: Inhibition of renin (fluorogenic peptide substrate)
Assay type: biochemical
Conditions: recombinant human renin 5 nM, fluorogenic peptide substrate 10 μM, 2 h at room temperature, Tris buffer pH 8; compounds tested as the obtained salt
Experimental: Recombinant human renin (Cayman, no. 10006217) at a concentration of 5 nM was incubated with the test compounds at various concentrations and the synthetic substrate Dabcyl-γ-Abu-Ile-His-Pro-Phe-His-Leu-Val-Ile-His-Thr-EDANS (Bachem, no. M-2050; Dabcyl means the 4-(4-dimethylamino-phenylazo)-benzoyl group and EDANS means the amide with 5-[(2-aminoethyl)amino]-naphthalene-1-sulfonic acid) at a concentration of 10 μM for 2 h at room temperature in 0.05 M Tris buffer (pH 8) containing 0.1 M NaCl, 2.5 mM EDTA and 1.25 mg/ml bovine serum albumin. The increase in fluorescence, which is due to fluorescence resonance energy transfer, was recorded at an excitation wavelength of 330 nm and an emission wavelength of 485 nm in a microplate spectrofluorometer. Inhibitory concentrations IC50 were calculated from the percentage of inhibition of renin activity as a function of the concentration of the test compound. […] Representative IC50 values, which were determined with the compounds in the form of the obtained salt indicated in the examples above, are listed in Table 4.

Point of comparison: `Cc1c(F)cccc1Cc1c(-c2ccccc2)c2ccccn2c1C(=O)N1CCNCC1` [Example 1, [2-(3-Fluoro-2-methyl-benzyl)-1-phenyl-indolizin-3-yl]-piperazin-1-yl-methanone], pIC50 8.15. Against it:
- Cc1c(F)cccc1Cc1c(C2CCCCC2)c2ccccn2c1C(=O)N1CCNCC1 [Example 2, [1-Cyclohexyl-2-(3-fluoro-2-methyl-benzyl)-indolizin-3-yl]-piperazin-1-yl-methanone] — 0.73 log units lower, 7.42
- Cc1c(F)cccc1Cc1c(-c2ccccc2)c2ccccn2c1C(=O)N1CCN[C@@H](CC(=O)NCC2CCOCC2)C1 [Example 6, 2-{(S)-4-[2-(3-Fluoro-2-methyl-benzyl)-1-phenyl-indolizine-3-carbonyl]-piperazin-2-yl}-N-(tetrahydropyran-4-ylmethyl)-acetamide] — 0.44 log units higher, 8.59
- Cc1c(F)cccc1Cc1c(-c2ccccc2)c2ccccn2c1C(=O)N1CCN[C@@H](CC(=O)NCC(C)(C)C(N)=O)C1 [Example 7, 3-(2-{(S)-4-[2-(3-Fluoro-2-methyl-benzyl)-1-phenyl-indolizine-3-carbonyl]-piperazin-2-yl}-acetylamino)-2,2-dimethyl-propionamide] — 0.44 log units higher, 8.59
- Cc1c(F)cccc1Cc1c(-c2ccccc2)c2cccnn2c1C(=O)N1CCNCC1 [Example 9, [6-(3-Fluoro-2-methyl-benzyl)-5-phenyl-pyrrolo[1,2-b]pyridazin-7-yl]-piperazin-1-yl-methanone] — 0.22 log units higher, 8.37
- Cc1c(F)cccc1Cc1c(-c2ccccc2)c2cc(O)cnn2c1C(=O)N1CCNCC1 [Example 10, [6-(3-Fluoro-2-methyl-benzyl)-3-hydroxy-5-phenyl-pyrrolo[1,2-b]pyridazin-7-yl]-piperazin-1-yl-methanone] — within 0.2 log units, 8.09
- Cc1c(F)cccc1Cc1c(C(=O)N2CCNCC2)c2ccccn2c1-c1ccccc1 [Example 11, [2-(3-Fluoro-2-methyl-benzyl)-3-phenyl-indolizin-1-yl]-piperazin-1-yl-methanone] — 0.51 log units lower, 7.64
- Cc1c(F)cccc1Cc1c(C(=O)N2CCNCC2)c2cc(Br)ccn2c1-c1ccccc1 [Example 12, [7-Bromo-2-(3-fluoro-2-methyl-benzyl)-3-phenyl-indolizin-1-yl]-piperazin-1-yl-methanone] — 1.71 log units lower, 6.44
- CNC(=O)c1ccc2c(-c3ccccc3)c(Cc3cccc(F)c3C)c(C(=O)N3CCNCC3)n2c1 [Example 13, 2-(3-Fluoro-2-methyl-benzyl)-1-phenyl-3-(piperazine-1-carbonyl)-indolizine-6-carboxylic acid methylamide] — 0.96 log units lower, 7.19

Test system: not given
Test: not given
Conditions: not given

Point of comparison: `Cc1c(F)cccc1Cc1c(-c2ccccc2)c2ccccn2c1C(=O)N1CCN[C@@H](CCO)C1` (as salt: hydrochloride) [Example 5, [2-(3-Fluoro-2-methyl-benzyl)-1-phenyl-indolizin-3-yl]-[(S)-3-(2-hydroxy-ethyl)-piperazin-1]-yl-methanone], melting point 202 °C. Against it:
- Cc1c(F)cccc1Cc1c(-c2ccccc2)c2ccccn2c1C(=O)N1CCNCC1 (as salt: hydrochloride) [Example 1, [2-(3-Fluoro-2-methyl-benzyl)-1-phenyl-indolizin-3-yl]-piperazin-1-yl-methanone] — higher, 263 °C
- Cc1c(F)cccc1Cc1c(C2CCCCC2)c2ccccn2c1C(=O)N1CCNCC1 (as salt: hydrochloride) [Example 2, [1-Cyclohexyl-2-(3-fluoro-2-methyl-benzyl)-indolizin-3-yl]-piperazin-1-yl-methanone] — higher, 317 to 318 °C
- O=C(c1c(Cc2c(F)cccc2Cl)c(-c2ccccc2)c2ccccn12)N1CCNCC1 (as salt: hydrochloride) [Example 3, [2-(2-Chloro-6-fluoro-benzyl)-1-phenyl-indolizin-3-yl]-piperazin-1-yl-methanone] — higher, 304 °C
- CNC(=O)c1ccn2c(C(=O)N3CCNCC3)c(Cc3cccc(F)c3C)c(-c3ccccc3)c2c1 (as salt: hydrochloride) [Example 4, 2-(3-Fluoro-2-methyl-benzyl)-1-phenyl-3-(piperazine-1-carbonyl)-indolizine-7-carboxylic acid methylamide] — higher, 205 °C
- Cc1c(F)cccc1Cc1c(-c2ccccc2)c2ccccn2c1C(=O)N1CCN[C@@H](CC(=O)NCC2CCOCC2)C1 (as salt: hydrochloride) [Example 6, 2-{(S)-4-[2-(3-Fluoro-2-methyl-benzyl)-1-phenyl-indolizine-3-carbonyl]-piperazin-2-yl}-N-(tetrahydropyran-4-ylmethyl)-acetamide] — lower, 147 °C
- Cc1c(F)cccc1Cc1c(-c2ccccc2)c2ccccn2c1C(=O)N1CCN[C@@H](CC(=O)NCC(C)(C)C(N)=O)C1 (as salt: hydrochloride) [Example 7, 3-(2-{(S)-4-[2-(3-Fluoro-2-methyl-benzyl)-1-phenyl-indolizine-3-carbonyl]-piperazin-2-yl}-acetylamino)-2,2-dimethyl-propionamide] — lower, 174 to 176 °C
- CNC(=O)c1cnn2c(C(=O)N3CCNCC3)c(Cc3cccc(F)c3C)c(-c3ccccc3)c2c1 (as salt: hydrochloride) [Example 8, 6-(3-Fluoro-2-methyl-benzyl)-5-phenyl-7-(piperazine-1-carbonyl)-pyrrolo[1,2-b]pyridazin-3-carboxylic acid methylamide] — higher, 208 to 210 °C
- Cc1c(F)cccc1Cc1c(-c2ccccc2)c2cccnn2c1C(=O)N1CCNCC1 (as salt: hydrochloride) [Example 9, [6-(3-Fluoro-2-methyl-benzyl)-5-phenyl-pyrrolo[1,2-b]pyridazin-7-yl]-piperazin-1-yl-methanone] — lower, 140 to 142 °C
- Cc1c(F)cccc1Cc1c(-c2ccccc2)c2cc(O)cnn2c1C(=O)N1CCNCC1 (as salt: hydrochloride) [Example 10, [6-(3-Fluoro-2-methyl-benzyl)-3-hydroxy-5-phenyl-pyrrolo[1,2-b]pyridazin-7-yl]-piperazin-1-yl-methanone] — higher, 206 to 208 °C
- CNC(=O)c1ccc2c(-c3ccccc3)c(Cc3cccc(F)c3C)c(C(=O)N3CCNCC3)n2c1 (as salt: hydrochloride) [Example 13, 2-(3-Fluoro-2-methyl-benzyl)-1-phenyl-3-(piperazine-1-carbonyl)-indolizine-6-carboxylic acid methylamide] — higher, 273 °C
- Cc1cccc(C)c1Cc1c(-c2ccccc2)c2ccccn2c1C(=O)N1CCN[C@H](C)C1 (as salt: hydrochloride) [Example 17, [2-(2,6-Dimethyl-benzyl)-1-phenyl-indolizin-3-yl)-((R)-3-methyl-piperazin-1-yl)-methanone] — higher, 302 °C
- Cc1c(F)cccc1Cc1c(-c2ccccc2)c2ccccn2c1C(=O)N1CCN[C@@H](CO)C1 (as salt: hydrochloride) [Example 22] — lower, 180 to 181 °C
- CNC(=O)CC[C@H]1CN(C(=O)c2c(Cc3cccc(F)c3C)c(-c3ccccc3)c3ccccn23)CCN1 (as salt: hydrochloride) [Example 26] — lower, 127 to 129 °C
- COC(=O)CCNC(=O)C[C@H]1CN(C(=O)c2c(Cc3cccc(F)c3C)c(-c3ccccc3)c3ccccn23)CCN1 (as salt: hydrochloride) [Example 30] — lower, 112 to 113 °C
- Cc1c(F)cccc1Cc1c(-c2ccccc2)c2ccccn2c1C(=O)N1CCN[C@@H](CC(=O)NCCS(C)(=O)=O)C1 (as salt: hydrochloride) [Example 31] — lower, 166 to 168 °C
- Cc1c(F)cccc1Cc1c(-c2ccccc2)c2ccccn2c1C(=O)N1CCN[C@@H](CC(=O)NCc2cccnc2)C1 (as salt: hydrochloride) [Example 32] — lower, 181 to 182 °C
- COc1ccn2c(C(=O)N3CCNCC3)c(Cc3cccc(F)c3C)c(-c3ccccc3)c2c1 (as salt: hydrochloride) [Example 35, [2-(3-fluoro-2-methyl-benzyl)-7-methoxy-1-phenyl-indolizin-3-yl]-piperazin-1-yl-methanone] — lower, 124 to 125 °C
- Cc1c(F)cccc1Cc1c(-c2ccccc2)c2cc(C(=O)N3CCCCC3)cnn2c1C(=O)N1CCN[C@@H](CC(=O)NCCO)C1 (as salt: hydrochloride) [Example 39] — lower, 164 to 166 °C
- CCNC(=O)c1cnn2c(C(=O)N3CCN[C@@H](CC(=O)NCCOC)C3)c(Cc3cccc(F)c3C)c(-c3ccccc3)c2c1 (as salt: hydrochloride) [Example 42, 6-(3-fluoro-2-methyl-benzyl)-7-{(S)-3-[(2-methoxy-ethylcarbamoyl)-methyl]-piperazine-1-carbonyl}-5-phenyl-pyrrolo[1,2-b]pyridazine-3-carboxylic acid ethylamide] — lower, 151 to 153 °C
- COCCN(C)C(=O)C[C@H]1CN(C(=O)c2c(Cc3cccc(F)c3C)c(-c3ccccc3)c3cc(C(=O)N(C)C)cnn23)CCN1 (as salt: hydrochloride) [Example 46] — lower, 130 to 132 °C
